Reference: PMC3395807 (Journal of Medicinal Chemistry, 2012)
Entries after “also recorded” stand apart in the source; their conditions may differ.

How the values were obtained:
[1] = tested on: human plasma protein; assay: Human plasma protein binding
[2] = tested on: rat plasma protein; assay: Rat plasma protein binding
[3] = tested on: DENV; assay: DENV in-cell western assay in Huh7.5 cells; type: cell-based, dengue virus; settings: DENV infected Huh7.5 cells, side-by-side comparison, Figure 5A
[4] = tested on: human CYP450s (1A2, 2C9, 2C19, 2D6, and 3A4); assay: Inhibition of five major human CYP450s; settings: 10 μM
[5] = tested on: mouse plasma protein; assay: Mouse plasma protein binding
[6] = tested on: DENV; assay: DENV virus yield reduction assay in BHK cells; type: cell-based, dengue virus (serotype 2, New Guniea C strain); settings: 0.8 to 20 μM, Figure 5B
[7] = MTT cytotoxicity assay in BHK cells; settings: hamster
[8] = tested on: DENV; settings: DENV infected AG129 mice; cited from earlier work

## CCCC(CCC)OCCCCCCN1C[C@H](O)[C@@H](O)[C@H](O)[C@H]1CO [Compound 1c]
[1]
  Human Plasma Protein Binding: 91 % bound
[2]
  Rat Plasma Protein Binding: 77 % bound

## OC[C@@H]1[C@@H](O)[C@H](O)[C@@H](O)CN1CCCCCCOC1CCCCCC1 [Compound 2l, (2R,3R,4R,5S)-1-(6-(Cycloheptyloxy)hexyl)-2-(hydroxymethyl)piperidine-3,4,5-triol]
[3]
  antiviral activity in in-cell western assay: much improved antiviral activity compared to compound 7
[1]
  Human Plasma Protein Binding: 71 % bound
[2]
  Rat Plasma Protein Binding: 65 % bound

## Cc1cccc(OCCCCCCN2C[C@H](O)[C@@H](O)[C@H](O)[C@H]2CO)c1 [Compound 3c]
[1]
  Human Plasma Protein Binding: 80 % bound
[2]
  Rat Plasma Protein Binding: 79 % bound

## OC[C@@H]1[C@@H](O)[C@H](O)[C@@H](O)CN1CCCCCCOc1cccc(F)c1 [Compound 3j, (2R,3R,4R,5S)-1-(6-(3-Fluorophenoxy)hexyl)-2-(hydroxymethyl)piperidine-3,4,5-triol]
[3]
  antiviral activity in in-cell western assay: much improved antiviral activity compared to compound 7
[4]
  inhibition on any of the five major drug metabolizing human CYP450s: no inhibition
[1]
  Human Plasma Protein Binding: 78 % bound
[2]
  Rat Plasma Protein Binding: 71 % bound
[5]
  Mouse Plasma Protein Binding: 79 % bound

## OC[C@@H]1[C@@H](O)[C@H](O)[C@@H](O)CN1CCCCCCOc1cc(F)ccc1F [Compound 3l, (2R,3R,4R,5S)-1-(6-(2,5-Difluorophenoxy)hexyl)-2-(hydroxymethyl)piperidine-3,4,5-triol]
[3]
  antiviral activity in in-cell western assay: much improved antiviral activity compared to compound 7; also recorded: the most potent one
[1]
  Human Plasma Protein Binding: 74 % bound
[2]
  Rat Plasma Protein Binding: 68 % bound
[5]
  Mouse Plasma Protein Binding: 77 % bound
[6]
  reduction of DENV titers: being the most potent

## OC[C@@H]1[C@@H](O)[C@H](O)[C@@H](O)CN1CCCCCCOc1cccc(C(F)(F)F)c1 [Compound 3p]
[1]
  Human Plasma Protein Binding: 93 % bound
[2]
  Rat Plasma Protein Binding: 90 % bound

## COc1ccccc1OCCCCCCN1C[C@H](O)[C@@H](O)[C@H](O)[C@H]1CO [Compound 3s]
[4]
  inhibition on any of the five major drug metabolizing human CYP450s: no inhibition
[1]
  Human Plasma Protein Binding: 65 % bound
[2]
  Rat Plasma Protein Binding: 70 % bound

## OC[C@@H]1[C@@H](O)[C@H](O)[C@@H](O)CN1CCCCCCOCc1ccccc1 [Compound 3v, (2R,3R,4R,5S)-1-(6-(Benzyloxy)hexyl)-2-(hydroxymethyl)piperidine-3,4,5-triol]
[3]
  antiviral activity in in-cell western assay: much improved antiviral activity compared to compound 7
[4]
  inhibition on any of the five major drug metabolizing human CYP450s: no inhibition
[1]
  Human Plasma Protein Binding: 52 % bound
[2]
  Rat Plasma Protein Binding: 49 % bound

## CCCOc1cccc(CCCN2C[C@H](O)[C@@H](O)[C@H](O)[C@H]2CO)c1 [Compound 4b, (2R,3R,4R,5S)-2-(Hydroxymethyl)-1-(3-(3-propoxyphenyl)propyl)piperidine-3,4,5-triol]
[3]
  antiviral activity in in-cell western assay: much improved antiviral activity compared to compound 7
[4]
  inhibition on any of the five major drug metabolizing human CYP450s: no inhibition
[1]
  Human Plasma Protein Binding: 68 % bound
[2]
  Rat Plasma Protein Binding: 57 % bound

## OC[C@@H]1[C@@H](O)[C@H](O)[C@@H](O)CN1CC/C=C\CCOc1cc(F)ccc1F [Compound 5c, (2R,3R,4R,5S)-1-((Z)-6-(2,5-Difluorophenoxy)hex-3-en-1-yl)-2-(hydroxymethyl)piperidine-3,4,5-triol]
[7]
  CC50: > 500 µM

## CCC(O)(CC)CCCCCCN1C[C@H](O)[C@@H](O)[C@H](O)[C@H]1CO [Compound 7, (2R,3R,4R,5S)-1-(7-Ethyl-7-hydroxynonyl)-2-(hydroxymethyl)piperidine-3,4,5-triol]
[1]
  Human Plasma Protein Binding: 33 % bound
[2]
  Rat Plasma Protein Binding: 30 % bound
[8]
  in vivo antiviral efficacy (viremia): reducing viremia
